In brackets after ≈: the same amount, converted by molar mass.
Test system: M. catarrhalis A894
Experiment: MIC determination by microdilution in cation-adjusted Mueller-Hinton Broth (CLSI M7-A7)
Assay type: cell-based
Conditions: Moraxella catarrhalis, A894, microdilution method
Method: Minimal inhibitory concentrations (MICs, in mg/l) were determined in cation-adjusted Mueller-Hinton Broth by a microdilution method following the description given in “Methods for Dilution Antimicrobial Susceptibility Tests for Bacteria that Grow Aerobically”, Approved standard, 7th ed., Clinical and Laboratory Standards Institute (CLSI) Document M7-A7, Wayne, Pa., USA, 2006. All Example compounds were tested against several Gram-positive and Gram-negative bacteria.

Structure (SMILES)	MIC [µg/mL]
O=C1CSc2ccc(N3C[C@@H](CNCC4Cn5c(=O)ccc6nccc(c65)O4)OC3=O)cc2N1 (mixture of isomers) [Example 1, 2-(RS)-({[(R)-2-oxo-3-(3-oxo-3,4-dihydro-2H-benzo[1,4]thiazin-6-yl)-oxazolidin-5-ylmethyl]-amino}-methyl)-2,3-dihydro-1-oxa-3a,7-diaza-phenalen-4-one]	≤ 0.063
O=C1COc2ccc(N3C[C@@H](CNCC4Cn5c(=O)ccc6nccc(c65)O4)OC3=O)cc2N1 (mixture of isomers) [Example 2, 2-(RS)-({[(R)-2-oxo-3-(3-oxo-3,4-dihydro-2H-benzo[1,4]oxazin-6-yl)-oxazolidin-5-ylmethyl]-amino}-methyl)-2,3-dihydro-1-oxa-3a,7-diaza-phenalen-4-one]	0.5
O=C1CSc2ccc(N3C[C@@H](CNCC4Cc5c(F)ccc6ccc(=O)n(c56)C4)OC3=O)cc2N1 (mixture of isomers) [Example 3, (6RS)-8-fluoro-6-({[(R)-2-oxo-3-(3-oxo-3,4-dihydro-2H-benzo[1,4]thiazin-6-yl)-oxazolidin-5-ylmethyl]-amino}-methyl)-6,7-dihydro-5H-pyrido[3,2,1-ij]quinolin-3-one]	≤ 0.063
O=C1COc2ccc(N3C[C@@H](CNCC4Cc5c(F)ccc6ccc(=O)n(c56)C4)OC3=O)cc2N1 (mixture of isomers) [Example 4, (6RS)-8-fluoro-6-({[(R)-2-oxo-3-(3-oxo-3,4-dihydro-2H-benzo[1,4]oxazin-6-yl)-oxazolidin-5-ylmethyl]-amino}-methyl)-6,7-dihydro-5H-pyrido[3,2,1-ij]quinolin-3-one]	≤ 0.063
O=C1O[C@H](CNCC2Cc3c(F)ccc4ccc(=O)n(c34)C2)CN1c1ccc2c(c1)OCCO2 (mixture of isomers) [Example 5, (6RS)-6-({[(R)-3-(2,3-dihydro-benzo[1,4]dioxin-6-yl)-2-oxo-oxazolidin-5-ylmethyl]-amino}-methyl)-8-fluoro-6,7-dihydro-5H-pyrido[3,2,1-ij]quinolin-3-one]	≤ 0.063
O=C1CSc2ccc(N3C[C@@H](CNCC4Cn5c(=O)ccc6cccc(c65)O4)OC3=O)cc2N1 (mixture of isomers) [Example 11, (RS)-2-({[(R)-2-oxo-3-(3-oxo-3,4-dihydro-2H-benzo[1,4]thiazin-6-yl)-oxazolidin-5-ylmethyl]-amino}-methyl)-2,3-dihydro-1-oxa-3a-aza-phenalen-4-one]	≤ 0.063
O=C1CSc2ccc(N3C[C@@H](CNCC4Cn5c(=O)ccc6ccc(F)c(c65)O4)OC3=O)cc2N1 (mixture of isomers) [Example 12, (RS)-9-fluoro-2-({[(R)-2-oxo-3-(3-oxo-3,4-dihydro-2H-benzo[1,4]thiazin-6-yl)-oxazolidin-5-ylmethyl]-amino}-methyl)-2,3-dihydro-1-oxa-3a-aza-phenalen-4-one]	≤ 0.063
O=C1COc2ccc(N3C[C@@H](CNCC4Cc5c(F)cnc6ccc(=O)n(c56)C4)OC3=O)cc2N1 (mixture of isomers) [Example 14, (RS)-3-fluoro-5-({[(R)-2-oxo-3-(3-oxo-3,4-dihydro-2H-benzo[1,4]oxazin-6-yl)-oxazolidin-5-ylmethyl]-amino}-methyl)-5,6-dihydro-4H-1,6a-diaza-phenalen-7-one]	≤ 0.063
O=C1COc2ccc(N3C[C@@H](CCNCC4Cc5c(F)ccc6ccc(=O)n4c56)OC3=O)cc2N1 (mixture of isomers) [Example 21, (RS)-9-fluoro-2-({2-[(R)-2-oxo-3-(3-oxo-3,4-dihydro-2H-benzo[1,4]oxazin-6-yl)-oxazolidin-5-yl]-ethylamino}-methyl)-1,2-dihydropyrrolo[3,2,1-ij]quinolin-4-one]	≤ 0.063
O=C1COc2ccc(N3C[C@@H](CCNCC4Cc5c(F)ccc6c5N4C(=O)CC6)OC3=O)cc2N1 (mixture of isomers) [Example 23, (RS)-9-fluoro-2-({2-[(R)-2-oxo-3-(3-oxo-3,4-dihydro-2H-benzo[1,4]oxazin-6-yl)-oxazolidin-5-yl]-ethylamino}-methyl)-1,2,5,6-tetrahydropyrrolo[3,2,1-ij]quinolin-4-one]	≤ 0.063
O=C1COc2ccc(N3C[C@H](CCNCC4Cc5ccnc6ccc(=O)n4c56)OC3=O)cc2N1 (mixture of isomers) [Example 25, (RS)-5-({2-[(S)-2-oxo-3-(3-oxo-3,4-dihydro-2H-benzo[1,4]oxazin-6-yl)-oxazolidin-5-yl]-ethylamino}-methyl)-4,5-dihydro-pyrrolo[3,2,1-de][1,5]naphthyridin-7-one]	4
O=C1COc2ccc(N3C[C@@H](CCNCC4Cc5cccc6ccc(=O)n4c56)OC3=O)cc2N1 (mixture of isomers) [Example 27, (RS)-2-({2-[(R)-2-oxo-3-(3-oxo-3,4-dihydro-2H-benzo[1,4]oxazin-6-yl)-oxazolidin-5-yl]-ethylamino}-methyl)-1,2-dihydro-pyrrolo[3,2,1-ij]quinolin-4-one]	≤ 0.063
O=C1CSc2ccc(N3C[C@@H](CNCC4Cc5cccc6ccc(=O)n4c56)OC3=O)cc2N1 (mixture of isomers) [Example 28, (RS)-2-({[(R)-2-oxo-3-(3-oxo-3,4-dihydro-2H-benzo[1,4]thiazin-6-yl)-oxazolidin-5-ylmethyl]-amino}-methyl)-1,2-dihydro-pyrrolo[3,2,1-ij]quinolin-4-one]	≤ 0.063
O=C1COc2ccc(N3C[C@H](CCNCC4Cc5cccc6ncc(=O)n4c56)OC3=O)nc2N1 (mixture of isomers) [Example 31, (RS)-5-({2-[(S)-2-oxo-3-(3-oxo-3,4-dihydro-2H-pyrido[3,2-b][1,4]oxazin-6-yl)-oxazolidin-5-yl]-ethylamino}-methyl)-5,6-dihydropyrrolo[1,2,3-de]quinoxalin-3-one]	≤ 0.063
O=C1CSc2ccc(N3C[C@@H](CCN[C@@H]4Cc5c(F)ccc6ccc(=O)n(c56)C4)OC3=O)cc2N1 (racemic) [Example 7, (6RS)-8-fluoro-6-{2-[(RS)-2-oxo-3-(3-oxo-3,4-dihydro-2H-benzo[1,4]thiazin-6-yl)-oxazolidin-5-yl]-ethylamino}-6,7-dihydro-5H-pyrido[3,2,1-ij]quinolin-3-one]	≤ 0.063
O=C1COc2ccc(N3C[C@@H](CNC[C@H]4Cc5c(F)ccc6ccc(=O)n4c56)OC3=O)cc2N1 [Example 8, (R)-9-fluoro-2-({[(R)-2-oxo-3-(3-oxo-3,4-dihydro-2H-benzo[1,4]oxazin-6-yl)-oxazolidin-5-ylmethyl]-amino}-methyl)-1,2-dihydro-pyrrolo[3,2,1-ij]quinolin-4-one]	0.125 (≈ 0.269 µM)

The remaining lines, values ahead:

MIC [µg/mL]	Structure (SMILES)
≤ 0.063	O=C1CSc2ccc(N3C[C@@H](CNCC4Cc5c(F)ccc6ccc(=O)n4c56)OC3=O)cc2N1 (mixture of isomers) [Example 9, (RS)-9-fluoro-2-({[(R)-2-oxo-3-(3-oxo-3,4-dihydro-2H-benzo[1,4]thiazin-6-yl)-oxazolidin-5-ylmethyl]-amino}-methyl)-1,2-dihydro-pyrrolo[3,2,1-ij]quinolin-4-one]
≤ 0.063	O=C1CSc2ccc(N3CC(CCNC[C@H]4Cc5c(F)ccc6ccc(=O)n4c56)OC3=O)cc2N1 (mixture of isomers) [Example 10, (R)-9-fluoro-2-({2-[(RS)-2-oxo-3-(3-oxo-3,4-dihydro-2H-benzo[1,4]thiazin-6-yl)-oxazolidin-5-yl]-ethylamino}-methyl)-1,2-dihydropyrrolo[3,2,1-ij]quinolin-4-one]
≤ 0.063	O=C1CSc2ccc(N3C[C@@H](CNCC4Cc5c(F)cnc6ccc(=O)n(c56)C4)OC3=O)cc2N1 (mixture of isomers) [Example 13, (RS)-3-fluoro-5-({[(R)-2-oxo-3-(3-oxo-3,4-dihydro-2H-benzo[1,4]thiazin-6-yl)-oxazolidin-5-ylmethyl]-amino}-methyl)-5,6-dihydro-4H-1,6a-diaza-phenalen-7-one]
≤ 0.063	O=C1CSc2ccc(N3C[C@@H](CCNCC4Cc5c(F)cnc6ccc(=O)n4c56)OC3=O)cc2N1 (mixture of isomers) [Example 15, (RS)-3-fluoro-5-({2-[(R)-2-oxo-3-(3-oxo-3,4-dihydro-2H-benzo[1,4]thiazin-6-yl)-oxazolidin-5-yl]-ethylamino}-methyl)-4,5-dihydropyrrolo[3,2,1-de][1,5]naphthyridin-7-one]
≤ 0.063	O=C1COc2ccc(N3C[C@H](CCNCC4Cc5c(F)ccc6ccc(=O)n4c56)OC3=O)cc2N1 (mixture of isomers) [Example 22, (RS)-9-fluoro-2-({2-[(S)-2-oxo-3-(3-oxo-3,4-dihydro-2H-benzo[1,4]oxazin-6-yl)-oxazolidin-5-yl]-ethylamino}-methyl)-1,2-dihydropyrrolo[3,2,1-ij]quinolin-4-one]
2	O=C1CSc2ccc(N3C[C@@H](CCNCC4Cc5ccnc6ccc(=O)n4c56)OC3=O)cc2N1 (mixture of isomers) [Example 24, (RS)-5-({2-[(R)-2-oxo-3-(3-oxo-3,4-dihydro-2H-benzo[1,4]thiazin-6-yl)-oxazolidin-5-yl]-ethylamino}-methyl)-4,5-dihydro-pyrrolo[3,2,1-de][1,5]naphthyridin-7-one]
≤ 0.063	O=C1CSc2ccc(N3C[C@@H](CCNCC4Cc5cccc6ccc(=O)n4c56)OC3=O)cc2N1 (mixture of isomers) [Example 26, (RS)-2-({2-[(R)-2-oxo-3-(3-oxo-3,4-dihydro-2H-benzo[1,4]thiazin-6-yl)-oxazolidin-5-yl]-ethylamino}-methyl)-1,2-dihydro-pyrrolo[3,2,1-ij]quinolin-4-one]
≤ 0.063	O=C1CSc2ccc(N3C[C@@H](CNC[C@H]4Cc5c(F)ccc6ccc(=O)n4c56)OC3=O)cc2N1 [Example 6, (R)-9-fluoro-2-({[(R)-2-oxo-3-(3-oxo-3,4-dihydro-2H-benzo[1,4]thiazin-6-yl)-oxazolidin-5-ylmethyl]-amino}-methyl)-1,2-dihydro-pyrrolo[3,2,1-ij]quinolin-4-one]

From patent US8349828B2, “Azatricyclic antibiotic compounds” (Actelion Pharmaceuticals Ltd., priority 2008, dated 2013)
